pIC50, pKi: −log10 of the molar value.
Key:
His6-BRD4 (BD1) = target: T1, His6-BRD4 (BD1) (Homo sapiens, UniProt O60885); assay: Surface plasmon resonance (SPR) single-dose screening; format: binding; design: key to SPR RESULT: Positive: compounds were considered as SPR hits also when their average signal was further than two standard deviations apart from the average signal of the blank samples (1% DMSO); conditions: for RUs at [10 µM]: SPR, compound 10 µM, 1% DMSO, n = 2, decimal comma; for SPR RESULT: single dose 10 µM, n = 2
T1 construct: A pET28 plasmid containing residues 44–168 of BRD4 (BD1), a 6xHis tag, a TEV protease cleavage site; made in house; host or cells: E. coli Rosetta (D3)

BRD4 (BD1) [1] = target: T2, BRD4 (BD1) (Homo sapiens, UniProt O60885); conditions: advanced BRD4 (BD1) drug; cited from earlier work
T2 construct: A pET28 plasmid containing residues 44–168 of BRD4 (BD1), a 6xHis tag, a TEV protease cleavage site; 6xHis (N, cleaved yes); made in house; host or cells: E. coli Rosetta (D3)

BRD4 (BD1) [2] = target: T2, BRD4 (BD1); assay: Competitive HTRF TR-FRET binding assay (displacement of acetylated histone H4 peptide); conditions: for pIC50 / TR-FRET IC50 (nM): 16-point titration 0.1 nM to 10 µM, n = 2, Negative = curve could not be fitted to a sigmoidal curve; for pIC50: read-out: TR-FRET IC50; for IC50 by HTRF TR-FRET, range in words: potency range or dose-response behaviour
Method: To further quantitatively characterize the DSF/SPR hits compounds obtained in the single-dose screenings, we selected HTRF TR-FRET. Specifically, we employed a competitive HTRF TR-FRET experiment to measure the compound’s capacity to displace an acetylated peptide from the binding site of BRD4 (BD1). For each molecule, a 16-point concentration curve was titrated against the peptide-BRD (BD1) complex and incubated for 1.5 h. A compound was considered a positive binder if we could fit its titration curve to a sigmoidal curve to determine its IC50. […] Compound screening was carried out in 384-well, white, round-bottom, small-volume plates (CORNING) in a final volume of 20 µL of 50 mM HEPES (pH 7.4), 50 mM NaCl, 400 mM KF, 0.5 mM CHAPS, and 0.05% BSA. […] Then, the labeled anti-His6-XL665 antibody (CisBio) (10 nM) was added to the mixture and incubated for 15 min, before the Eu3+ cryptate-conjugated streptavidin (2 nM) (CisBio) was added and incubated for 15 min. All incubations were performed at room temperature. […] Titration of (+)−JQ1 was used as a positive control for each experiment.

BRD4 (BD1) [3] = target: T2, BRD4 (BD1); assay: Differential scanning fluorimetry (DSF) single-dose thermal shift screening; format: binding; conditions: DSF, compound 10 µM, BRD4 (BD1) 2 µM, n = 3, decimal comma; read-out: ΔTm ºC at [10 µM]

| SMILES | RUs at [10 µM] (His6-BRD4 (BD1)) | pKi (BRD4 (BD1) [1]) | SPR RESULT (His6-BRD4 (BD1)) | pIC50 (BRD4 (BD1) [2]) | ΔTm at 10 µM (BRD4 (BD1) [3]) | TR-FRET IC50 (nM) (BRD4 (BD1) [2]) | IC50 by HTRF TR-FRET, range in words (BRD4 (BD1) [2]) |
| --- | --- | --- | --- | --- | --- | --- | --- |
| CCS(=O)(=O)Nc1ccc(Oc2ccc(F)cc2F)c(-c2cn(C)c(=O)c3[nH]ccc23)c1 [Compound 1, CCS(=O)(=O)NC1=CC(=C(C=C1)OC2=C(C=C(C=C2)F)F)C3=CN(C(=O)C4=C3C=CN4)C, reference compound] | 116,86 ± 26,64 RUs | 7.96 | – | – | – | – | – |
| Cc1nnc(NC(=O)NCc2cccc(C(=O)NCC3CCCO3)c2)s1 (stereo not shown) [Compound 73, CC1=NN=C(NC(=O)NCC=2C=CC=C(C2)C(=O)NCC3CCCO3)S1] | 23,59 ± 6,69 RUs | – | Positive | 4.97 | 1.13 °C | – | – |
| Cc1cc(C)n2nc(NC(=O)N3CCC(CCC(C)(C)C)C3)nc2n1 (stereo not shown) [Compound 74, CC=1C=C(C)N2N=C(NC(=O)N3CCC(CCC(C)(C)C)C3)N=C2N1] | 52,94 ± 6,92 RUs | – | Positive | 5.86 | 0.4 °C | – | – |
| Cc1ncc(CNC(=O)c2c(-c3ccccc3)nn3ccccc23)c(O)n1 [Compound 75, CC=1N=CC(CNC(=O)C=2C(=NN3C=CC=CC23)C=4C=CC=CC4)=C(O)N1] | 14,74 ± 1,95 RUs | – | Positive | – | 1.2 °C | Negative | – |
| Cc1nnc(NC(=O)CCC(=O)N2Cc3ccccc3OC3(CCOC3)C2)s1 (stereo not shown) [Compound 76, CC1=NN=C(NC(=O)CCC(=O)N2CC=3C=CC=CC3OC4(CCOC4)C2)S1] | 25 ± 11,77 RUs | – | Negative | 6.39 | 2.11 °C | – | – |
| Cc1cc(C)n2nc(NC(=O)N3CCc4cc(Cl)cc(Cl)c4C3)nc2n1 [Compound 77, CC=1C=C(C)N2N=C(NC(=O)N3CCC=4C=C(Cl)C=C(Cl)C4C3)N=C2N1] | 67,27 ± 12,19 RUs | – | Positive | 6.87 | 0.48 °C | – | – |
| Cc1cc(C(=O)NCCc2nc3cc(Cl)ccc3[nH]2)n2ncnc2n1 [Compound 78, CC=1C=C(C(=O)NCCC2=NC=3C=C(Cl)C=CC3N2)N4N=CN=C4N1] | 9,01 ± 0,76 RUs | – | Positive | 6.77 | 1.53 °C | – | – |
| Cc1nnc(NC(=O)C2CCCN(C(=O)c3ccc(Br)c(F)c3)C2)s1 (stereo not shown) [Compound 79, CC1=NN=C(NC(=O)C2CCCN(C2)C(=O)C=3C=CC(Br)=C(F)C3)S1] | 33,58 ± 5,55 RUs | – | Positive | – | 1.21 °C | Negative | – |
| Cc1nnc(NC(=O)CNC(c2ccc(Cl)cc2)c2ccccc2C(C)C)s1 (stereo not shown) [Compound 80, CC(C)C=1C=CC=CC1C(NCC(=O)NC2=NN=C(C)S2)C=3C=CC(Cl)=CC3] | 29,64 ± 5,36 RUs | – | Positive | 7.63 | -0.49 °C | – | – |
| Cc1nc(=O)c(CCC(=O)NC2CC(O)(Cn3cc(-c4cnn(C)c4C)nn3)C2)c[nH]1 (stereo not shown) [Compound 81, CC1=C(C=NN1C)C2=CN(CC3(O)CC(C3)NC(=O)CCC4=CNC(C)=NC4=O)N=N2] | 11,5 ± 1,85 RUs | – | Positive | 7.58 | -0.15 °C | – | – |
| CCOc1ccc(-c2cn(C3CC(NC(=O)c4cc(C)nc5ncnn45)C3)nn2)cc1F (stereo not shown) [Compound 82, CCOC=1C=CC(=CC1F)C2=CN(N=N2)C3CC(C3)NC(=O)C4=CC(C)=NC5=NC=NN45] | 38,3 ± 6,87 RUs | – | Positive | 7.53 | -0.24 °C | – | – |
| Cc1ncc(C(=O)NCCn2cc(Cn3c(C)nc4ccccc43)nn2)c(=O)[nH]1 [Compound 83, CC1=NC=2C=CC=CC2N1CC3=CN(CCNC(=O)C4=CN=C(C)NC4=O)N=N3] | 14,05 ± 12,27 RUs | – | Negative | 6.49 | 0.78 °C | – | – |
| O=C(Nc1cccc(C(=O)N2CCC(Cn3cc(C4(O)CCOCC4)nn3)CC2)c1)c1ccco1 [Compound 84, OC1(CCOCC1)C2=CN(CC3CCN(CC3)C(=O)C=4C=CC=C(NC(=O)C5=CC=CO5)C4)N=N2] | 17,5 ± 1,9 RUs | – | Positive | 7.74 | 1.16 °C | – | – |
| Cc1nc(=O)c(CCC(=O)N2CC3(CCCC3)c3ccccc32)c[nH]1 [Compound 85, CC1=NC(=O)C(CCC(=O)N2CC3(CCCC3)C=4C=CC=CC24)=CN1] | 24,26 ± 6,71 RUs | – | Positive | 7.75 | 1.18 °C | – | – |
| CN(Cc1cccc(OC(F)F)c1)C(=O)C(=O)NC1CCN(C(=O)c2ccco2)c2ccccc21 (stereo not shown) [Compound 86, CN(CC=1C=CC=C(OC(F)F)C1)C(=O)C(=O)NC2CCN(C(=O)C3=CC=CO3)C=4C=CC=CC24] | 56,94 ± 25,46 RUs | – | Negative | – | 0.94 °C | Negative | – |
| COC(=O)c1cc(CNC(=O)C=Cc2cnc(C)[nH]c2=O)ccc1Cl [Compound 87, COC(=O)C=1C=C(CNC(=O)C=CC2=CN=C(C)NC2=O)C=CC1Cl] | 15,1 ± 2,46 RUs | – | Positive | 7.95 | 2.3 °C | – | low nM |
| Cc1nnc(NC(=O)CNC(c2ccc(F)cc2)c2cnn(C)c2)s1 (stereo not shown) [Compound 88, CC1=NN=C(NC(=O)CNC(C=2C=NN(C)C2)C=3C=CC(F)=CC3)S1] | 4,11 ± 7,31 RUs | – | Negative | 5.65 | 0.54 °C | – | – |
| CC(NC(=O)CC1(C)CCCO1)C1(O)CN(C(=O)c2nsnc2O)C1 (stereo not shown) [Compound 89, CC(NC(=O)CC1(C)CCCO1)C2(O)CN(C2)C(=O)C3=NSN=C3O] | -1,39 ± 0,54 RUs | – | Negative | 6.81 | 0.19 °C | – | – |
| Cc1nonc1CC(=O)N1CC(CC(C)NC(=O)c2nsnc2O)C1 (stereo not shown) [Compound 90, CC(CC1CN(C1)C(=O)CC2=NON=C2C)NC(=O)C3=NSN=C3O] | 11,06 ± 3,73 RUs | – | Negative | 6.67 | 0.43 °C | – | – |
| Cc1cn2cc(C(=O)NC(C)CC(C)NC(=O)c3ccsn3)sc2n1 (stereo not shown) [Compound 91, CC(CC(C)NC(=O)C1=CN2C=C(C)N=C2S1)NC(=O)C=3C=CSN3] | 8,08 ± 2,94 RUs | – | Negative | 6.24 | 0.44 °C | – | – |
| COC(=O)C1(NCC(=O)Nc2nnc(C)s2)CC(C)(C)OC(C)(C)C1 [Compound 92, COC(=O)C1(CC(C)(C)OC(C)(C)C1)NCC(=O)NC2=NN=C(C)S2] | 8,96 ± 1,15 RUs | – | Negative | 6.21 | 1.04 °C | – | – |
| Cc1cc(C)n2nc(CNC(=NCCCN3CCOCC3)N3CCC(NC(=O)CBr)C3)nc2n1 (stereo not shown) [Compound 93, BrCC(=O)NC1CCN(C1)C(=NCCCN2CCOCC2)NCC=3N=C4N=C(C)C=C(C)N4N3] | 20,44 ± 23,06 RUs | – | Negative | 6.33 | -0.58 °C | – | – |
| Cc1ccc(-n2c(C)nnc2SCC(=O)N2CCOCCC23COC3)cc1 [Compound 94, CC1=NN=C(SCC(=O)N2CCOCCC32COC3)N1C=4C=CC(C)=CC4] | 3,87 ± 1,96 RUs | – | Negative | 7.55 | 1.19 °C | – | low nM |
| CCn1nnc2cc(C(=O)N3C[C@@H](OC(C)=O)[C@@H](n4cc(CN5CCC(O)CC5)nn4)C3)ccc21 [Compound 95, CCN1N=NC=2C=C(C=CC12)C(=O)N3C[C@@H](OC(=O)C)[C@H](C3)N4C=C(CN5CCC(O)CC5)N=N4] | 14,42 ± 2,9 RUs | – | Positive | – | 0.19 °C | Negative | – |
| CCCc1c(C(=O)N(C)C2CN(C(=O)c3cc(C)n[nH]3)C2)[nH]c(C)c1C(C)=O [Compound 96, CCCC1=C(NC(C)=C1C(=O)C)C(=O)N(C)C2CN(C2)C(=O)C3=CC(C)=NN3] | 16,1 ± 0,61 RUs | – | Positive | 6.67 | 2.24 °C | – | – |
